From ChEMBL document CHEMBL1137036, “Synthesis and evaluation of 2-amino-8-alkoxy quinolines as MCHr1 antagonists. Part 3” (Bioorg Med Chem Lett, 2004)

Legend:
[1] = Area under curve in plasma was determined at the peroral dose of 10 mg/kg in diet-induced obese (DIO) mice; unit may be ng.h/mL or ng.h/g; format: ADME, organism-based; set-up: dose 10 mg/kg, route oral; details: mouse, in vivo, po
[2] = Area under curve in brain was determined at the peroral dose of 10 mg/kg in diet-induced obese (DIO) mice; unit may be ng.h/mL or ng.h/g; format: ADME, organism-based; set-up: dose 10 mg/kg, route oral; details: mouse, in vivo, po
[3] = Half life in plasma was determined at the peroral dose of 10 mg/kg in diet-induced obese (DIO) mice; format: ADME, organism-based; set-up: dose 10 mg/kg, route oral; details: mouse, po
[4] = biological target: T1, Melanin-concentrating hormone receptor 1 (Homo sapiens, UniProt Q99705); assay: Concentration required to inhibit binding of [125I]MCH radioligand to human Melanin-concentrating hormone receptor 1 in IMR-32 I3.4.2 cell membranes
[5] = Half life in brain was determined at the peroral dose of 10 mg/kg in diet-induced obese (DIO) mice; format: ADME, organism-based; set-up: dose 10 mg/kg, route oral; details: mouse, po
[6] = biological target: T1, Melanin-concentrating hormone receptor 1; assay: Concentration required to inhibit 50% of melanin-concentrating hormone induced [Ca2+] flux in IMR-32 cells measured by using a fluorometric imaging plate reader; format: functional, cell-based
[7] = Maximum concentration in plasma was determined at the peroral dose of 10 mg/kg in diet-induced obese (DIO) mice; unit may be ng/mL or ng/g; format: ADME, organism-based; set-up: dose 10 mg/kg, route oral; details: mouse, po
[8] = Maximum concentration in brain was determined at the peroral dose of 10 mg/kg in diet-induced obese (DIO) mice; unit may be ng/mL or ng/g; format: ADME, organism-based; set-up: dose 10 mg/kg, route oral; details: mouse, po
[9] = Area under curve in brain was determined in diet-induced obese (DIO) mice; format: ADME, tissue-based; details: mouse, in vivo
[10] = Brain/plasma ratio was determined in diet-induced obese (DIO) mice; format: ADME, cell-free; details: mouse, brain and plasma

T1 sequence (Q99705 whole entry): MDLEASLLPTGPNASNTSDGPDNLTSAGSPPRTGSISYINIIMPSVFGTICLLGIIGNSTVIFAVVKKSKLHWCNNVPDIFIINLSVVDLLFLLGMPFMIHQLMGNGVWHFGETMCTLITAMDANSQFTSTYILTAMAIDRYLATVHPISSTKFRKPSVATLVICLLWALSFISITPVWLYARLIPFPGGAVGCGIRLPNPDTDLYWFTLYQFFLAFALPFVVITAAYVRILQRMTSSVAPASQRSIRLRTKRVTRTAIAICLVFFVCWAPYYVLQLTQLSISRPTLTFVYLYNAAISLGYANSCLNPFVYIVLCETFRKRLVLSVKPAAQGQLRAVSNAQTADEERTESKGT

IC50 [4] | IC50 [6] | Structure (SMILES) | also measured
0.9 nM | 22.4 nM | Nc1ccc2cccc(OC3CCN(c4ccc5c(c4)OC(F)(F)O5)C3)c2n1 (stereo not drawn) | AUC [1]: 801 ng·h/mL; AUC [2]: 17700 ng·h/mL; half-life [3]: 276 min; half-life [5]: 306 min; Cmax [7]: 331 ng/mL; Cmax [8]: 2860 ng/mL
 | 7 nM | Nc1ccc2cccc(OCCCNC(=O)c3cccc(Cl)c3)c2n1 | AUC [9]: 11 ng·h/mL; Kp [10]: 0.03
90 nM | 1260 nM | CC(=O)Nc1ccc(CN2CC[C@H](Oc3cccc4ccc(N)nc34)C2)cc1 | 
149 nM | > 10000 nM | CC(C)Cc1ccc(N2CCC(Oc3cccc4ccc(NCC5CC5)nc34)C2)cc1 (stereo not drawn) | 
730 nM | 9140 nM | Nc1ccc2cccc(O[C@H]3CCN(C(=O)c4ccc5c(c4)OCO5)C3)c2n1 | 
210 nM | 1140 nM | CC(C)(C)c1ccc(S(=O)(=O)N2CC[C@H](Oc3cccc4ccc(N)nc34)C2)cc1 | 
20.5 nM | 224 nM | CCC(c1ccccc1)N1CCC(Oc2cccc3ccc(N)nc23)C1 (stereo not drawn) | 
> 2000 nM | > 10000 nM | CN(C)c1ccc2cccc(OC3CCN(c4ccc5c(c4)OCO5)C3)c2n1 (stereo not drawn) | 
41 nM | 41 nM | CC(C)Cc1ccc(N2CCC(Oc3cccc4ccc(NCc5ccc(-c6cccc(C(F)(F)F)c6)o5)nc34)C2)cc1 (stereo not drawn) | 
70 nM | 1600 nM | Nc1ccc2cccc(O[C@@H]3CCN(Cc4ccc5c(c4)OCO5)C3)c2n1 | 
1.2 nM | 53.3 nM | CC(C)Cc1ccc(N2CCC(Oc3cccc4ccc(N)nc34)C2)cc1 (stereo not drawn) | 
70 nM | 30 nM | Nc1ccc2cccc(O[C@H]3CCN(Cc4ccc5c(c4)OCO5)C3)c2n1 | AUC [1]: 1350 ng·h/mL; AUC [2]: 1710 ng·h/mL; half-life [3]: 390 min; half-life [5]: 498 min; Cmax [7]: 543 ng/mL; Cmax [8]: 183 ng/mL
120 nM | 1690 nM | Nc1ccc2cccc(O[C@H]3CCN(Cc4ccccc4)C3)c2n1 | 
1 nM | 30 nM | CC(C)(C)c1ccc(CN2CC[C@H](Oc3cccc4ccc(N)nc34)C2)cc1 | 
2.7 nM | 51 nM | Nc1ccc2cccc(OC3CCN(c4ccc5c(c4)OCCO5)C3)c2n1 (stereo not drawn) | 
 |  | Nc1ccc2cccc(OCCCNCc3ccc(Cl)c(C(F)(F)F)c3)c2n1 | AUC [9]: 9520 ng·h/mL; Kp [10]: 0.96
38.6 nM | 531 nM | Nc1ccc2cccc(O[C@@H]3CCN(c4ccc5c(c4)OC(F)(F)O5)C3)c2n1 | 
25.6 nM | 244 nM | CNc1ccc2cccc(OC3CCN(c4ccc5c(c4)OCCO5)C3)c2n1 (stereo not drawn) | 
580 nM | > 10000 nM | Nc1ccc2cccc(O[C@@H]3CCN(Cc4ccccc4)C3)c2n1 | 

Structure (SMILES) | IC50 [4] | IC50 [6] | also measured
CC(Cc1ccc2c(c1)OCO2)N1CCC(Oc2cccc3ccc(N)nc23)C1 (stereo not drawn) | 2.2 nM | 79.2 nM | 
